Data on 18 molecules can be found in article PMC10863392.

This data set can be described thus: Intramolecular Friedel-Crafts arylation (C(vinyl)-C(aryl) bond) of vinyl cation from vinyl tosylate; [Li]+[B(C6F5)4]- 10 mol%, LiH 5 equiv. Conditions: 1,2-dichlorobenzene, 16.7 mM, 140.0 °C.

Turning to `Cc1ccc(S(=O)(=O)N2CCc3c(Cl)cccc3C(=C3CCCCC3)c3ccccc32)cc1` [1 -> 2], under “from Cc1ccc(S(=O)(=O)OC(=C2CCCCC2)c2ccccc2N(CCc2ccccc2Cl)S(=O)(=O)c2ccc(C)cc2)cc1, 8-membered ring, 18.0 h”, the ring closure, isolated yield amounted to 73%.
Regarding `COc1ccc(CC2Cc3cc(OC)ccc3C(=C(C)C)c3ccccc3S2)cc1` (stereo not drawn) [28 -> 29a (NMR yield)], the ring closure, isolated yield (from COc1ccc(CC(Cc2cccc(OC)c2)Sc2ccccc2C(OS(=O)(=O)c2ccc(C)cc2)=C(C)C)cc1, 8-membered ring) is 25%.
On to `CC(C)=C1c2ccccc2CCCN(S(=O)(=O)c2ccc(C)cc2)c2ccccc21` [SI-11 -> 6], for which, under “from CC(C)=C(OS(=O)(=O)c1ccc(C)cc1)c1ccccc1N(CCCc1ccccc1)S(=O)(=O)c1ccc(C)cc1, 9-membered ring, 36.0 h”, the ring closure, isolated yield worked out at 82%.
Consider `CC(C)=C1c2ccccc2CCSc2ccccc21` [SI-14 -> 8], for which, under “from CC(C)=C(OS(=O)(=O)c1ccc(C)cc1)c1ccccc1SCCc1ccccc1, 8-membered ring”, the ring closure, isolated yield was 46%.
Regarding `CC(C)=C1c2ccccc2CCN(S(=O)(=O)c2ccc(C)cc2)c2ccccc21` [SI-16 -> 5], the ring closure, isolated yield (from CC(C)=C(OS(=O)(=O)c1ccc(C)cc1)c1ccccc1N(CCc1ccccc1)S(=O)(=O)c1ccc(C)cc1, 8-membered ring, 36.0 h) was 56%.
Consider `CC(C)=C1c2ccccc2CCCc2ccccc21` [SI-20 -> 9], for which, for the setting “from CC(C)=C(OS(=O)(=O)c1ccc(C)cc1)c1ccccc1CCCc1ccccc1, 8-membered ring”, the ring closure, isolated yield came to 81%.
In the case of `Cc1ccc(S(=O)(=O)N2CCc3ccc(N(C)C)cc3C(=C3CCCCC3)c3ccccc32)cc1` [SI-24 -> 11], the ring closure, isolated yield (from Cc1ccc(S(=O)(=O)OC(=C2CCCCC2)c2ccccc2N(CCc2ccc(N(C)C)cc2)S(=O)(=O)c2ccc(C)cc2)cc1, 8-membered ring) amounted to 62%.
Take `COc1ccc2c(c1)C(=C1CCCCC1)c1ccccc1N(S(=O)(=O)c1ccc(C)cc1)CC2` [SI-27 -> 12]: for the setting “from COc1ccc(CCN(c2ccccc2C(OS(=O)(=O)c2ccc(C)cc2)=C2CCCCC2)S(=O)(=O)c2ccc(C)cc2)cc1, 8-membered ring”, the ring closure, isolated yield was 76%.
As for `CC(C)=C1c2cc(O[Si](C)(C)C(C)(C)C)ccc2CCN(S(=O)(=O)c2ccc(C)cc2)c2ccccc21` [SI-33 -> 13], the ring closure, isolated yield (from CC(C)=C(OS(=O)(=O)c1ccc(C)cc1)c1ccccc1N(CCc1ccc(O[Si](C)(C)C(C)(C)C)cc1)S(=O)(=O)c1ccc(C)cc1, 8-membered ring) was found to be 79%.
Take `Cc1ccc(S(=O)(=O)N2CCc3ccc(Br)cc3C(=C3CCCC3)c3ccccc32)cc1` [SI-36 -> 15]: for the setting “from Cc1ccc(S(=O)(=O)OC(=C2CCCC2)c2ccccc2N(CCc2ccc(Br)cc2)S(=O)(=O)c2ccc(C)cc2)cc1, 8-membered ring”, the ring closure, isolated yield amounted to 79%.
Consider `Cc1ccc(S(=O)(=O)N2CCc3sccc3C(=C3CCCCC3)c3ccccc32)cc1` [SI-38 -> 18], for which the ring closure, isolated yield (from Cc1ccc(S(=O)(=O)OC(=C2CCCCC2)c2ccccc2N(CCc2cccs2)S(=O)(=O)c2ccc(C)cc2)cc1, 8-membered ring, 20.0 h) came to 73%.
`CC(C)=C1c2ccccc2CCN(S(=O)(=O)c2ccc(C)cc2)c2sc3c(c21)CCCC3` [SI-42 -> 19 (120 C)]: where the note is “from CC(C)=C(OS(=O)(=O)c1ccc(C)cc1)c1c(N(CCc2ccccc2)S(=O)(=O)c2ccc(C)cc2)sc2c1CCCC2, 8-membered ring, 20.0 h”, the ring closure, isolated yield is 85%.
As for `CC(C)=C1c2ccccc2CCCOc2ccccc21` [SI-45 -> 10], the ring closure, isolated yield (from CC(C)=C(OS(=O)(=O)c1ccc(C)cc1)c1ccccc1CCCOc1ccccc1, 9-membered ring, 48.0 h) is 65%.
Take `COc1ccc2c(c1)N(S(=O)(=O)c1ccc(C)cc1)CCc1ccccc1C2=C(C)C` [SI-46 -> 16]: the ring closure, isolated yield (from COc1ccc(C(OS(=O)(=O)c2ccc(C)cc2)=C(C)C)c(N(CCc2ccccc2)S(=O)(=O)c2ccc(C)cc2)c1, 8-membered ring, 24.0 h) amounted to 78%.
As for `Cc1ccc(S(=O)(=O)N2CCCCc3ccccc3C(=C3CCCCC3)c3ccccc32)cc1` [precursor of 7 (n.d.)], the ring closure, isolated yield (from Cc1ccc(S(=O)(=O)OC(=C2CCCCC2)c2ccccc2N(CCCCc2ccccc2)S(=O)(=O)c2ccc(C)cc2)cc1, 10-membered ring) turned out to be 0%.
Consider `Cc1ccc(S(=O)(=O)N2CCCc3ccc(C(F)(F)F)cc3C(=C3CCCCC3)c3ccccc32)cc1` [precursor of 14 (n.d.)], for which, for the setting “from Cc1ccc(S(=O)(=O)OC(=C2CCCCC2)c2ccccc2N(CCCc2ccc(C(F)(F)F)cc2)S(=O)(=O)c2ccc(C)cc2)cc1, 9-membered ring”, the ring closure, isolated yield came out at 0%.
In the case of `CC(C)=C1c2ccccc2CCN(S(=O)(=O)c2ccc(C)cc2)c2cc(C(F)(F)F)ccc21` [precursor of 17 (n.d., 160 C)], the ring closure, isolated yield (from CC(C)=C(OS(=O)(=O)c1ccc(C)cc1)c1ccc(C(F)(F)F)cc1N(CCc1ccccc1)S(=O)(=O)c1ccc(C)cc1, 8-membered ring) was determined as 0%.
For `CC1=C(c2ccccc2)c2ccccc2CCCC1` [precursor of 20 (n.d.)], the ring closure, isolated yield (from CC(CCCCc1ccccc1)=C(OS(=O)(=O)c1ccc(C)cc1)c1ccccc1, 8-membered ring) was determined as 0%.
